The values that follow come from patent US11708348B2, “Protease inhibitors for treatment of coronavirus infections” (The Scripps Research Institute, priority 2021, dated 2023).

Bounds are passed on as bounds.

As usually defined, the EC50 is the concentration giving half of the maximal effect.

One experiment has as its system SARS-CoV-2 strain USA-WA1/2020. Put plainly: microbe, parasite or virus in culture. The experiment is classed as cell-based. Particulars: Severe acute respiratory syndrome coronavirus 2, HeLa-ACE2, 24 h, HeLa-ACE2 cells, SARS-CoV-2 infection, 24 h; given as a bound, not a class symbol; read-out: EC50, uM (Hela).
As for `CC(C)(C)[C@H](NC(=O)NC1CC1)C(=O)N1C[C@H]2[C@@H]([C@H]1C(=O)N[C@@H](C[C@@H]1CCNC1=O)C(=O)COC(F)(F)F)C2(C)C` [Compound 634, (1R,2S,5S)-3-((S)-2-(3-cyclopropylureido)-3,3-dimethylbutanoyl)-6,6-dimethyl-N-((S)-3-oxo-1-((S)-2-oxopyrrolidin-3-yl)-4-(trifluoromethoxy)butan-2-yl)-3-azabicyclo[3.1.0]hexane-2-carboxamide], the EC50 is greater than 1 µM.

Staying with this experiment, now noted: Severe acute respiratory syndrome coronavirus 2, HeLa-ACE2, 24 h, HeLa-ACE2 cells, SARS-CoV-2 infection, 24 h; read-out: EC50, uM (Hela).
With `CC(C)(C(=O)N1CC2(CC2)C[C@H]1C(=O)N[C@@H](C[C@@H]1CCNC1=O)C(=O)COC(F)(F)F)c1ccccc1` [Compound 619, (S)-5-(2-methyl-2-phenylpropanoyl)-N-((S)-3-oxo-1-((S)-2-oxopyrrolidin-3-yl)-4-(trifluoromethoxy)butan-2-yl)-5-azaspiro[2.4]heptane-6-carboxamide], the EC50 is less than 0.05 µM. Same read-out and setting: then `CC(C)(C)[C@H](NC(=O)OCc1ccccc1)C(=O)N1C[C@H]2[C@@H]([C@H]1C(=O)N[C@@H](C[C@@H]1CCNC1=O)C(=O)COC(F)(F)F)C2(C)C` [Compound 620, benzyl ((S)-1-((1R,2S,5S)-6,6-dimethyl-2-(((S)-3-oxo-1-((S)-2-oxopyrrolidin-3-yl)-4-(trifluoromethoxy)butan-2-yl)carbamoyl)-3-azabicyclo[3.1.0]hexan-3-yl)-3,3-dimethyl-1-oxobutan-2-yl)carbamate], with less than 0.05 µM; and `COC(C(=O)N1C[C@@H]2CCC[C@@H]2[C@H]1C(=O)N[C@@H](C[C@@H]1CCNC1=O)C(=O)COC(F)(F)F)c1cncc(Cl)n1` (stereo partly drawn) [Compound 621, (1S,3aR,6aS)-2-(2-(6-chloropyrazin-2-yl)-2-methoxyacetyl)-N-((S)-3-oxo-1-((S)-2-oxopyrrolidin-3-yl)-4-(trifluoromethoxy)butan-2-yl)octahydrocyclopenta[c]pyrrole-1-carboxamide], with 0.05 to 0.2 µM; and `CC(C)CC(F)(F)C(=O)N1CC2(CC2)C[C@H]1C(=O)N[C@@H](C[C@@H]1CCNC1=O)C(=O)COC(F)(F)F` [Compound 623, (S)-5-(2,2-difluoro-4-methylpentanoyl)-N-((S)-3-oxo-1-((S)-2-oxopyrrolidin-3-yl)-4-(trifluoromethoxy)butan-2-yl)-5-azaspiro[2.4]heptane-6-carboxamide], with less than 0.05 µM.

On to `CC(C)(F)CCC(=O)N1CC2(CC2)C[C@H]1C(=O)N[C@@H](C[C@@H]1CCNC1=O)C(=O)COC(F)(F)F` [Compound 624, (S)-5-(4-fluoro-4-methylpentanoyl)-N-((S)-3-oxo-1-((S)-2-oxopyrrolidin-3-yl)-4-(trifluoromethoxy)butan-2-yl)-5-azaspiro[2.4]heptane-6-carboxamide], for which the EC50 lay in the range of 0.05 to 0.2 µM.

Take `CC(C)CC(C)(C)C(=O)N1CC2(CC2)C[C@H]1C(=O)N[C@@H](C[C@@H]1CCNC1=O)C(=O)COC(F)(F)F` [Compound 625, (S)-N-((S)-3-oxo-1-((S)-2-oxopyrrolidin-3-yl)-4-(trifluoromethoxy)butan-2-yl)-5-(2,2,4-trimethylpentanoyl)-5-azaspiro[2.4]heptane-6-carboxamide]: the EC50 was less than 0.05 µM. Same read-out and setting: under `CCC(=O)O[C@H](CC(C)C)C(=O)N1CC2(CC2)C[C@H]1C(=O)N[C@@H](C[C@@H]1CCNC1=O)C(=O)COC(F)(F)F` [Compound 626, (R)-4-methyl-1-oxo-1-((S)-6-(((S)-3-oxo-l-((S)-2-oxopyrrolidin-3-yl)-4-(trifluoromethoxy)butan-2-yl)carbamoyl)-5-azaspiro[2.4]heptan-5-yl)pentan-2-yl propionate] stands less than 0.05 µM; under `O=C1NCC[C@H]1C[C@H](NC(=O)[C@@H]1CC2(CC2)CN1C(=O)C12CC(F)(C1)C2)C(=O)COC(F)(F)F` [Compound 627, (S)-5-(3-fluorobicyclo[1.1.1]pentane-1-carbonyl)-N-((S)-3-oxo-1-((S)-2-oxopyrrolidin-3-yl)-4-(trifluoromethoxy)butan-2-yl)-5-azaspiro[2.4]heptane-6-carboxamide], 0.05 to 0.2 µM; under `C[C@H](C(=O)N1CC2(CC2)C[C@H]1C(=O)N[C@@H](C[C@@H]1CCNC1=O)C(=O)COC(F)(F)F)c1ccccc1` [Compound 628, (S)-N-((S)-3-oxo-1-((S)-2-oxopyrrolidin-3-yl)-4-(trifluoromethoxy)butan-2-yl)-5-((S)-2-phenylpropanoyl)-5-azaspiro[2.4]heptane-6-carboxamide], 0.05 to 0.2 µM. The same measure, in the same setting: under `C[C@H](C(=O)N1C[C@H]2[C@@H]([C@H]1C(=O)N[C@@H](C[C@@H]1CCNC1=O)C(=O)COC(F)(F)F)C2(C)C)c1ccccc1` [Compound 629, (1R,2S,5S)-6,6-dimethyl-N-((S)-3-oxo-1-((S)-2-oxopyrrolidin-3-yl)-4-(trifluoromethoxy)butan-2-yl)-3-((S)-2-phenylpropanoyl)-3-azabicyclo[3.1.0]hexane-2-carboxamide] stands less than 0.05 µM; under `CC1(C)[C@@H]2[C@@H](C(=O)N[C@@H](C[C@@H]3CCNC3=O)C(=O)COC(F)(F)F)N(C(=O)C3(O)CCC(F)(F)CC3)C[C@@H]21` [Compound 630, (1R,2S,5S)-3-(4,4-difluoro-1-hydroxycyclohexane-1-carbonyl)-6,6-dimethyl-N-((S)-3-oxo-1-((S)-2-oxopyrrolidin-3-yl)-4-(trifluoromethoxy)butan-2-yl)-3-azabicyclo[3.1.0]hexane-2-carboxamide], 0.05 to 0.2 µM; under `CC(C)C[C@@H](OC(=O)C(C)C)C(=O)N1CC2(CC2)C[C@H]1C(=O)N[C@@H](C[C@@H]1CCNC1=O)C(=O)COC(F)(F)F` [Compound 631, (R)-4-methyl-1-oxo-1-((S)-6-(((S)-3-oxo-l-((S)-2-oxopyrrolidin-3-yl)-4-(trifluoromethoxy)butan-2-yl)carbamoyl)-5-azaspiro[2.4]heptan-5-yl)pentan-2-yl isobutyrate], 0.2 to 0.5 µM. For `CC1(C)CCC(O)(C(=O)N2CC3(CC3)C[C@H]2C(=O)N[C@@H](C[C@@H]2CCNC2=O)C(=O)COC(F)(F)F)CC1` [Compound 633, (S)-5-(l-hydroxy-4,4-dimethylcyclohexane-1-carbonyl)-N-((S)-3-oxo-1-((S)-2-oxopyrrolidin-3-yl)-4-(trifluoromethoxy)butan-2-yl)-5-azaspiro[2.4]heptane-6-carboxamide], the EC50 is less than 0.05 µM. On the same count and under the same terms, then `CC(C)C[C@@H](O)C(=O)N1CCCC[C@H]1C(=O)N[C@@H](C[C@@H]1CCNC1=O)C(=O)COC(F)(F)F` [Compound 636, (S)-1-((R)-2-hydroxy-4-methylpentanoyl)-N-((S)-3-oxo-1-((S)-2-oxopyrrolidin-3-yl)-4-(trifluoromethoxy)butan-2-yl)piperidine-2-carboxamide], with 0.05 to 0.2 µM; and `CC(C)C[C@@H](O)C(=O)N1CC[C@@H](C(C)(C)C)C[C@H]1C(=O)N[C@@H](C[C@@H]1CCNC1=O)C(=O)COC(F)(F)F` [Compound 637, (2S,4R)-4-(tert-butyl)-1-((R)-2-hydroxy-4-methylpentanoyl)-N-((S)-3-oxo-1-((S)-2-oxopyrrolidin-3-yl)-4-(trifluoromethoxy)butan-2-yl)piperidine-2-carboxamide], with less than 0.05 µM. For `CC(C)C[C@@H](O)C(=O)N1C[C@H]2CC[C@H](C2)[C@H]1C(=O)N[C@@H](C[C@@H]1CCNC1=O)C(=O)COC(F)(F)F` [Compound 638, (1R,2S,5S)-3-((R)-2-hydroxy-4-methylpentanoyl)-N-((S)-3-oxo-1-((S)-2-oxopyrrolidin-3-yl)-4-(trifluoromethoxy)butan-2-yl)-3-azabicyclo[3.2.1]octane-2-carboxamide], the EC50 fell in the range of 0.05 to 0.2 µM.

Take `CC(C)C[C@@H](O)C(=O)N1CCCCC[C@H]1C(=O)N[C@@H](C[C@@H]1CCNC1=O)C(=O)COC(F)(F)F` [Compound 639, (S)-1-((R)-2-hydroxy-4-methylpentanoyl)-N-((S)-3-oxo-1-((S)-2-oxopyrrolidin-3-yl)-4-(trifluoromethoxy)butan-2-yl)azepane-2-carboxamide]: the EC50 was less than 0.05 µM. The same measure, in the same setting: then `CC(C)C[C@@H](O)C(=O)N1CCC2(CC2)C[C@H]1C(=O)N[C@@H](C[C@@H]1CCNC1=O)C(=O)COC(F)(F)F` [Compound 640, (S)-6-((R)-2-hydroxy-4-methylpentanoyl)-N-((S)-3-oxo-1-((S)-2-oxopyrrolidin-3-yl)-4-(trifluoromethoxy)butan-2-yl)-6-azaspiro[2.5]octane-5-carboxamide], with 0.05 to 0.2 µM.

The same experiment, now with this note: Severe acute respiratory syndrome coronavirus 2, HeLa-ACE2, 24 h; read-out: EC50, uM (Hela).
On to `O=C(Cc1ccccc1)O[C@@H](C(=O)N1C[C@@H]2CCC[C@@H]2[C@H]1C(=O)N[C@@H](C[C@@H]1CCNC1=O)C(=O)COC(F)(F)F)c1ccccc1F` [Compound 622, (R)-1-(2-fluorophenyl)-2-oxo-2-((1S,3aR,6aS)-1-(((S)-3-oxo-1-((S)-2-oxopyrrolidin-3-yl)-4-(trifluoromethoxy)butan-2-yl)carbamoyl)hexahydrocyclopenta[c]-pyrrol-2(1H)-yl)ethyl 2-phenylacetate], for which the EC50 lay in the range of 0.05 to 0.2 µM. On the same count and under the same terms, under `CC(C)C[C@@H](OC(=O)Cc1ccccc1)C(=O)N1CC2(CC2)C[C@H]1C(=O)N[C@@H](C[C@@H]1CCNC1=O)C(=O)COC(F)(F)F` [Compound 632, (R)-4-methyl-1-oxo-1-((S)-6-(((S)-3-oxo-l-((S)-2-oxopyrrolidin-3-yl)-4-(trifluoromethoxy)butan-2-yl)carbamoyl)-5-azaspiro[2.4]heptan-5-yl)pentan-2-yl 2-phenylacetate] stands less than 0.05 µM. On the same count and under the same terms, then `O=C1NCC[C@H]1C[C@H](NC(=O)[C@@H]1CC2(CC2)CN1C(=O)C(F)F)C(=O)COC(F)(F)F` [Compound 635, (S)-5-(2,2-difluoroacetyl)-N-((S)-3-oxo-1-((S)-2-oxopyrrolidin-3-yl)-4-(trifluoromethoxy)butan-2-yl)-5-azaspiro[2.4]heptane-6-carboxamide], with 0.05 to 0.2 µM.
